This is an account of results in patent US20230278966A1, “TRIAZOLONE COMPOUNDS FOR CONTROLLING INVERTEBRATE PESTS” (FMC Corporation, priority 2020, published 2023).

The subject of the experiment is Root Knot Nematodes. The experiment is described as follows: Nematicide assay: control of Root Knot Nematode galling on host plant roots. The format is in vivo. The conditions noted are these: drip application, 4-day-old host plant, assessed after 8 days; for pest or weed control at 500 ppm / pest or weed control at 100 ppm: 192 h, read-out: control efficacy (decrease of nematode gall formation on roots compared to the inoculated control). The method, then: Test compounds were formulated using a solution containing 25% acetone and 75% water. The formulated compounds were applied in 330 μl of liquid through a drip applicator that was positioned above the top of each test unit. Test compounds were applied at 500 ppm and 100 ppm and each test was replicated three times. For evaluating control of Root Knot Nematodes the test unit consisted of a small open container with a 4-day-old host plant inside. The formulated compounds were dripped into the container and the nematodes were applied following the compound's application. The test units were held for 8 days in a growth chamber at 29.4° C. or 85 F. Root invasion by the nematodes was then visually assessed based on presence or absence of galls on the roots.

SMILES strings stand for the structures.

Take `O=C(NCCn1nc(C(F)(F)F)n(CC(F)(F)F)c1=O)c1ccccc1C(F)(F)F` [Compound 1]: the pest or weed control at 500 ppm (500 ppm) was determined as 100%.

`O=C(NCCn1nc(C(F)(F)F)n(C2CC2)c1=O)c1ccccc1C(F)(F)F` [Compound 2]: under “500 ppm”, the pest or weed control at 500 ppm was found to be 100%. `CC(C)n1c(C(F)F)nn(CCNC(=O)c2ccccc2C(F)(F)F)c1=O` [Compound 9]: the pest or weed control at 500 ppm (500 ppm) is 100%. Take `CC(C)(C)n1c(C(F)(F)F)nn(CCNC(=O)c2ccccc2C(F)(F)F)c1=O` [Compound 10, N-[2-[4-(1,1-Dimethylethyl)-4,5-dihydro-5-oxo-3-(trifluoromethyl)-1H-1,2,4-triazol-1-yl]ethyl]-2-(trifluoromethyl)benzamide]: under “500 ppm”, the pest or weed control at 500 ppm was 100%.

For the compound `CC(C)n1c(C(F)(F)F)nn(CCNC(=O)c2ccccc2C(F)(F)F)c1=O` [Compound 11], the pest or weed control at 500 ppm (500 ppm) is 100%. For `CCn1c(C(F)(F)F)nn(CCNC(=O)c2ccccc2C(F)(F)F)c1=O` [Compound 12], under “500 ppm”, the pest or weed control at 500 ppm came to 100%. For the compound `Cn1c(C(F)(F)F)nn(CCNC(=O)c2ccccc2C(F)(F)F)c1=O` [Compound 14, N-[2-[4,5-Dihydro-4-methyl-5-oxo-3-(trifluoromethyl)-1H-1,2,4-triazol-1-yl]ethyl]-2-(trifluoromethyl)benzamide], the pest or weed control at 500 ppm (500 ppm) was 100%.

As for `O=C(NCCn1nc(C(F)(F)F)n(CC(F)(F)F)c1=O)c1ccccc1Cl` [Compound 30], the pest or weed control at 500 ppm (500 ppm) is 100%. With `CC(C)n1c(C(F)(F)F)nn(CCNC(=O)c2ccccc2Cl)c1=O` [Compound 31], under “500 ppm”, the pest or weed control at 500 ppm is 100%.

With `O=C(NCCn1nc(C(F)(F)F)n(CC2CC2)c1=O)c1ccccc1C(F)(F)F` [Compound 32, N-[2-[4-(Cyclopropylmethyl)-4,5-dihydro-5-oxo-3-(trifluoromethyl)-1H-1,2,4-triazol-1-yl]ethyl]-2-(trifluoromethyl)benzamide], the pest or weed control at 500 ppm (500 ppm) was found to be 100%. Take `CC(C)(C)n1c(C(F)(F)F)nn(CCNC(=O)c2ccccc2Cl)c1=O` [Compound 38, 2-Chloro-N-[2-[4-(1,1-dimethylethyl)-4,5-dihydro-5-oxo-3-(trifluoromethyl)-1H-1,2,4-triazol-1-yl]ethyl]benzamide]: the pest or weed control at 500 ppm (500 ppm) is 100%. `CC1(n2c(C(F)(F)F)nn(CCNC(=O)c3ccccc3C(F)(F)F)c2=O)CC1` [Compound 45]: the pest or weed control at 500 ppm (500 ppm) is 100%. Consider `CC(C)(C)n1c(C(F)(F)F)nn(CCNC(=O)c2ccccc2Br)c1=O` [Compound 50, 2-Bromo-N-[2-[4-(1,1-dimethylethyl)-4,5-dihydro-5-oxo-3-(trifluoromethyl)-1H-1,2,4-triazol-1-yl]ethyl]benzamide], for which the pest or weed control at 500 ppm (500 ppm) is 100%. Turning to `O=C(NCCn1nc(C(F)(F)F)n(C2CC2)c1=O)c1ccccc1Cl` [Compound 59], the pest or weed control at 500 ppm (500 ppm) stood at 100%. As to `CC(C)(C)n1c(C(F)(F)F)nn(CCNC(=O)c2cccnc2Cl)c1=O` [Compound 92, 2-Chloro-N-[2-[4-(1,1-dimethylethyl)-4,5-dihydro-5-oxo-3-(trifluoromethyl)-1H-1,2,4-triazol-1-yl]ethyl]-3-pyridinecarboxamide], the pest or weed control at 100 ppm (100 ppm) came to 100%. Further, for the setting “500 ppm”, the pest or weed control at 500 ppm is 100%.

Consider `CC(C)(C)n1c(C(F)(F)F)nn(CCNC(=O)c2cccnc2C(F)(F)F)c1=O` [Compound 93], for which the pest or weed control at 500 ppm (500 ppm) turned out to be 100%. On to `CC(C)(C)n1c(C(F)(F)F)nn(CCNC(=O)c2c(F)cccc2C(F)(F)F)c1=O` [Compound 128], for which, for the setting “500 ppm”, the “control efficacy (decrease of nematode gall formation on roots compared to the inoculated control)” value was 100%.

As for `CC(C)(n1c(C(F)(F)F)nn(CCNC(=O)c2ccccc2Br)c1=O)C(F)(F)F` [Compound 133], the “control efficacy (decrease of nematode gall formation on roots compared to the inoculated control)” value runs as follows: (100 ppm) 100%; (500 ppm) 100%. As for `Cc1ccccc1C(=O)NCCn1nc(C(F)(F)F)n(C(C)(C)C(F)(F)F)c1=O` [Compound 135], the “control efficacy (decrease of nematode gall formation on roots compared to the inoculated control)” value (500 ppm) stood at 100%. As to `O=C(NCCn1nc(C(F)(F)F)n(C2(C(F)(F)F)CCC2)c1=O)c1ccccc1C(F)(F)F` [Compound 139], where the note is “500 ppm”, the “control efficacy (decrease of nematode gall formation on roots compared to the inoculated control)” value was found to be 100%. `O=C(NCCn1nc(C(F)(F)F)n(C2(C(F)(F)F)CCC2)c1=O)c1ccccc1Br` [Compound 142]: the “control efficacy (decrease of nematode gall formation on roots compared to the inoculated control)” value (500 ppm) is listed as 100%. Still for that read-out and setting: the value for `O=C(NCCn1nc(C(F)(F)F)n(C2CC(F)(F)C2)c1=O)c1ccccc1Br` [Compound 143] was 100%. For the compound `O=C(NCCn1nc(C(F)(F)F)n(C2CC(F)(F)C2)c1=O)c1ccccc1C(F)(F)F` [Compound 145], the “control efficacy (decrease of nematode gall formation on roots compared to the inoculated control)” value runs as follows: (100 ppm) 100%; (500 ppm) 100%. Regarding `O=C(NCCn1nc(C(F)(F)F)n(C2CC(F)(F)C2)c1=O)c1ccccc1Cl` [Compound 148], the “control efficacy (decrease of nematode gall formation on roots compared to the inoculated control)” value (100 ppm) stood at 100% and the “control efficacy (decrease of nematode gall formation on roots compared to the inoculated control)” value (500 ppm) is reported as 100%. Consider `O=C(NCCn1nc(C(F)(F)F)n(C2(C(F)(F)F)CCC2)c1=O)c1ccccc1Cl` [Compound 149], for which, under “500 ppm”, the “control efficacy (decrease of nematode gall formation on roots compared to the inoculated control)” value stood at 100%. For `CC(C)(n1c(C(F)(F)F)nn(CCNC(=O)c2ncccc2C(F)(F)F)c1=O)C(F)(F)F` [Compound 160], under “500 ppm”, the “control efficacy (decrease of nematode gall formation on roots compared to the inoculated control)” value is listed as 100%. In the case of `CC(C)(n1c(C(F)(F)F)nn(CCNC(=O)c2cccnc2C(F)(F)F)c1=O)C(F)(F)F` [Compound 165], the “control efficacy (decrease of nematode gall formation on roots compared to the inoculated control)” value is 100% (100 ppm) and 100% (500 ppm).

As for `CC(n1c(C(F)(F)F)nn(CCNC(=O)c2cccnc2Cl)c1=O)C(F)(F)F` (centres unmarked) [Compound 166], for the setting “500 ppm”, the “control efficacy (decrease of nematode gall formation on roots compared to the inoculated control)” value came out at 100%.

As for `O=C(NCCn1nc(C(F)(F)F)n(C2(C(F)(F)F)CCC2)c1=O)c1cccnc1C(F)(F)F` [Compound 169], the pest or weed control at 500 ppm (500 ppm) was 100%.

With `O=C(NCCn1nc(C(F)(F)F)n(C2(C(F)(F)F)CCC2)c1=O)c1cccnc1Cl` [Compound 170], the pest or weed control at 500 ppm (500 ppm) turned out to be 100%. Regarding `CC(C)(n1c(C(F)(F)F)nn(CCNC(=O)c2cccnc2Cl)c1=O)C(F)(F)F` [Compound 171], the “control efficacy (decrease of nematode gall formation on roots compared to the inoculated control)” value is, setting by setting: (100 ppm) 100%; (500 ppm) 100%. Regarding `O=C(NCCn1nc(C(F)(F)F)n(C2CC(F)(F)C2)c1=O)c1cccnc1C(F)(F)F` [Compound 173], the pest or weed control at 500 ppm (500 ppm) stood at 100%. Turning to `CC(n1c(C(F)(F)F)nn(CCNC(=O)c2cccnc2C(F)(F)F)c1=O)C(F)(F)F` (centres unmarked) [Compound 175], for the setting “500 ppm”, the “control efficacy (decrease of nematode gall formation on roots compared to the inoculated control)” value came to 100%.

Take `CC(C)(n1c(C(F)(F)F)nn(CCNC(=O)c2ccccc2C(F)(F)F)c1=O)C(F)(F)F` [Compound 179, N-[2-[4,5-Dihydro-5-oxo-4-(2,2,2-trifluoro-1,1-dimethylethyl)-3-(trifluoromethyl)-1H-1,2,4-triazol-1-yl]ethyl]-2-(trifluoromethyl)benzamide]: the pest or weed control at 100 ppm (100 ppm) is 100%. Also, the pest or weed control at 500 ppm (500 ppm) is 100%.
